Measured values taken from BindingDB's records for doi:10.1080/14756360802188420 (Bahauddin Zakariya University, 2009).

Biological target: Urease (Canavalia ensiformis, UniProt P07374)
Assay: Inhibition Assay
Text: Inhibition assay using urease from jack bean.

Sequence of Urease (P07374 whole entry): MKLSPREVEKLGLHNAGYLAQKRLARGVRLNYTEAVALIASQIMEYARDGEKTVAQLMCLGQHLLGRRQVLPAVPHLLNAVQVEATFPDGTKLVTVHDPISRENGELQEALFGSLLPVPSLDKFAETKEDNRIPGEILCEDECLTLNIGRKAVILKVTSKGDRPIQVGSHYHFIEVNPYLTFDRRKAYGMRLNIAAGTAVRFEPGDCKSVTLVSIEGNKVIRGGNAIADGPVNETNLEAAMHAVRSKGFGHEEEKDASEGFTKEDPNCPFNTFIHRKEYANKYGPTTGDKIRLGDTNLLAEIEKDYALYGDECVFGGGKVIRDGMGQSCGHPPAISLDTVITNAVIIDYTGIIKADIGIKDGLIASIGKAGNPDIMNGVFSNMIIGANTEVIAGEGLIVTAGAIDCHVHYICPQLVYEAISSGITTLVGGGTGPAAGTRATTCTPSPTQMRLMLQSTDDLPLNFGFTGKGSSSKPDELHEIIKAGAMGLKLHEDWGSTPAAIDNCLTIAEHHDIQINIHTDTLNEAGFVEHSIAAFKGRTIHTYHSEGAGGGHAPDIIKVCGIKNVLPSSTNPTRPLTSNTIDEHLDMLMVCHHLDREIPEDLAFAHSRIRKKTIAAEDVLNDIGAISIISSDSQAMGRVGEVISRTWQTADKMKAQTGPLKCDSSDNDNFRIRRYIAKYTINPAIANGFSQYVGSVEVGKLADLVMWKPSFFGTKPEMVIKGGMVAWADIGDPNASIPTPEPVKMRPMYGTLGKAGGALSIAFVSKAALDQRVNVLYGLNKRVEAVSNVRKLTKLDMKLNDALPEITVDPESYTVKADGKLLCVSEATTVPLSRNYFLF

O=C1Nc2ccccc2/C1=N/NC(=S)Nc1c(Cl)cc(Cl)cc1Cl [Thiosemicarbazone, 2l]
IC50: 28.6 µM
